The source of these data is patent US8541588B2, “Sulfonamide derivatives” (Pfizer Limited, priority 2009, dated 2013).

For orientation: IC50 means the concentration that inhibits the measured activity by half.

For one assay, the target named is T1, Nav1.7 (or SCN9A) channel; HEK cells stably transfected with hSCN9A (Homo sapiens, UniProt Q15858).
T1 construct: expressed in transfected cells
T1 sequence (Q15858 whole entry): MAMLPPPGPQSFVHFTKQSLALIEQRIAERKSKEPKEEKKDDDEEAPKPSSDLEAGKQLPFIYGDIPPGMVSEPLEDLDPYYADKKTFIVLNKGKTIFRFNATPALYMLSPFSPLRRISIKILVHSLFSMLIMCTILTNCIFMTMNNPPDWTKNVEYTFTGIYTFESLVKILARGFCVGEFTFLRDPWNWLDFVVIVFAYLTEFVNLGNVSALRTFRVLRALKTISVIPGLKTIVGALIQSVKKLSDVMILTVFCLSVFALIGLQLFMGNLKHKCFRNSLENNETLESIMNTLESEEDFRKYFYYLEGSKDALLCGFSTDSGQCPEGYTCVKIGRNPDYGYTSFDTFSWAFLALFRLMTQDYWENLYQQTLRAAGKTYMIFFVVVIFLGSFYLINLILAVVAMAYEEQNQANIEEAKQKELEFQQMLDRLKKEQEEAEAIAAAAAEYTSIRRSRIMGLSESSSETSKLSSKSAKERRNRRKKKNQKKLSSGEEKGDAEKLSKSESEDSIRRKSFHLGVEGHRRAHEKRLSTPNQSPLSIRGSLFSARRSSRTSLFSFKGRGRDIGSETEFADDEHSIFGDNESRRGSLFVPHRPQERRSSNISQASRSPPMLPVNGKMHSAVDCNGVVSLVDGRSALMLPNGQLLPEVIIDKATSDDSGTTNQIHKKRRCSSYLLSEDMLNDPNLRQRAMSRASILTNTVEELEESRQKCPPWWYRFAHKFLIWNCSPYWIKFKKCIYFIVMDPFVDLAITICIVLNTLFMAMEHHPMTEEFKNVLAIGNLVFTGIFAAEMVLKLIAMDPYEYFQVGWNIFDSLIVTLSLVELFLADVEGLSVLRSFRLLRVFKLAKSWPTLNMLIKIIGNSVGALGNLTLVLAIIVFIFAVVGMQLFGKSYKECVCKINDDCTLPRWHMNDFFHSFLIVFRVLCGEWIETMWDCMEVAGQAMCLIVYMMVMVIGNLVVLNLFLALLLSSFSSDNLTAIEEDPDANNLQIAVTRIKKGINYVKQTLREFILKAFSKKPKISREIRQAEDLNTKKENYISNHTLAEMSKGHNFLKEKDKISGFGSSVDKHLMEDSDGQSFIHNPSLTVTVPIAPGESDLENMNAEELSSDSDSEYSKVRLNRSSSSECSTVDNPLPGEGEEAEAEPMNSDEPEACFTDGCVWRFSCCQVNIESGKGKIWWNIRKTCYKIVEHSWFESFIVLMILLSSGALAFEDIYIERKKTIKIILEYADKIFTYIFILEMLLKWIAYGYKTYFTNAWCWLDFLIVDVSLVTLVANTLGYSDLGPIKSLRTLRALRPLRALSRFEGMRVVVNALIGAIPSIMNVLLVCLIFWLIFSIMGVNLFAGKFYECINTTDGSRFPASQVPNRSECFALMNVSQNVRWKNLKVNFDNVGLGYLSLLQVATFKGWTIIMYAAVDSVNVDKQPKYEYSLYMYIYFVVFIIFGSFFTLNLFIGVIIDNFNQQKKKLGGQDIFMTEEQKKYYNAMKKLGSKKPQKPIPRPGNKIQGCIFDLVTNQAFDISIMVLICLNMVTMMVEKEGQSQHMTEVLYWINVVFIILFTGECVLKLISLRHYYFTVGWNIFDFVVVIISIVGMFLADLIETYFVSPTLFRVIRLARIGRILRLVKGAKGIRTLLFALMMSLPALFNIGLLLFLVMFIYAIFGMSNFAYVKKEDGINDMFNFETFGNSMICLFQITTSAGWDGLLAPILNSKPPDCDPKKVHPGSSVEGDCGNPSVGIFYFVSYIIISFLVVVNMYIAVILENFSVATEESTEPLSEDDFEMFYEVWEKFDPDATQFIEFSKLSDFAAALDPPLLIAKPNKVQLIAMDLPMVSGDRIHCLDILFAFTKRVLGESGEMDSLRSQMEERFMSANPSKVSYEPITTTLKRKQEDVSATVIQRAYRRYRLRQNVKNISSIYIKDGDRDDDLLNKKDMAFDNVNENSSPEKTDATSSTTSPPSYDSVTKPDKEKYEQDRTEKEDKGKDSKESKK
Briefly: Nav1.7 block, PatchXpress 7000 automated whole-cell voltage clamp, estimated IC50 (EIC50). The note with it: PatchXpress platform; hSCN9A HEK cells held at V1/2 of inactivation; estimated IC50. Format: cell-based.
As for `Cn1nccc1-c1ccccc1Oc1ccc(S(=O)(=O)Nc2ncns2)cc1C#N` [Example 70, 3-cyano-4-[2-(1-methyl-1H-pyrazol-5-yl)phenoxy]-N-1,2,4-thiadiazol-5-ylbenzenesulfonamide], the IC50 is 110 nM. On the same count and under the same terms, as for `Cc1ccc(Oc2ccc(S(=O)(=O)Nc3ncns3)cc2C#N)c(-c2c(C)cnn2C)c1` [Example 27, 3-cyano-4-(2-(1,4-dimethyl-1H-pyrazol-5-yl)-4-methylphenoxy)-N-(1,2,4-thiadiazol-5-yl)benzenesulfonamide], the figure is 780 nM. The same measure, in the same setting: as for `Cc1nc(-c2ccccc2Oc2ccc(S(=O)(=O)Nc3nccs3)c(F)c2)cs1` [Example 2], the figure is 810 nM.

Regarding `N#Cc1cc(S(=O)(=O)Nc2ncns2)ccc1Oc1ccc(Cl)cc1Oc1ccccc1` [Example 79, 4-(4-chloro-2-phenoxyphenoxy)-3-cyano-N-1,2,4-thiadiazol-5-ylbenzenesulfonamide], the IC50 is 450 nM. On the same count and under the same terms, as for `CC(C)Oc1ccc(-c2ccccc2Oc2ccc(S(=O)(=O)Nc3ncns3)cc2C#N)cc1` [Example 54, 3-cyano-4-[(4′-isopropoxybiphenyl-2-yl)oxy]-N-1,2,4-thiadiazol-5-ylbenzenesulfonamide], the figure is 260 nM; as for `O=S(=O)(Nc1nccs1)c1ccc(Oc2cnn(Cc3ccc(Cl)cc3)c2)cc1F` [Example 206, 4-(1-(4-chlorobenzyl)-1H-pyrazol-4-yloxy)-2-fluoro-N-(thiazol-2-yl)benzenesulfonamide], 1190 nM; as for `Cn1cnnc1-c1cc(Cl)ccc1Oc1ccc(S(=O)(=O)Nc2nccs2)cc1C#N` [Example 182, 4-(4-chloro-2-(4-methyl-4H-1,2,4-triazol-3-yl)phenoxy)-3-cyano-N-(thiazol-2-yl)benzenesulfonamide], 930 nM. On the same count and under the same terms, as for `N#Cc1cc(S(=O)(=O)Nc2nccs2)ccc1Oc1cc(C2CC2)nn1-c1ccccc1F` [Example 193, 3-cyano-4-[5-cyclopropyl-2-(2-fluoro-phenyl)-2H-pyrazol-3-yloxy]-N-thiazol-2-yl-benzenesulfonamide], the figure is 1230 nM.

Staying with this assay, now noted: estimated IC50; hSCN9A HEK cells, PatchXpress platform; Examples 283-814.
`Cc1cc(C(F)(F)F)nn1-c1ccc(Oc2ccc(S(=O)(=O)Nc3nccs3)cc2C#N)c(C(C)C)c1` [Example 356, 3-cyano-4-{2-isopropyl-4-[5-methyl-3-(trifluoromethyl)-1H-pyrazol-1-yl]phenoxy}-N-1,3-thiazol-2-ylbenzenesulfonamide]: the IC50 is 120 nM. On the same count and under the same terms, as for `Cc1ccc(-c2ccnn2C)c(Oc2ccc(S(=O)(=O)Nc3nccs3)cc2C#N)c1` [Example 543, 3-cyano-4-[5-methyl-2-(1-methyl-1H-pyrazol-5-yl)phenoxy]-N-1,3-thiazol-2-ylbenzenesulfonamide], the figure is 66 nM; as for `N#Cc1cc(S(=O)(=O)Nc2nccs2)ccc1Oc1ccc(-c2cc(C(F)(F)F)nn2CCO)cc1` [Example 382, 3-cyano-4-{4-[1-(2-hydroxyethyl)-3-(trifluoromethyl)-1H-pyrazol-5-yl]phenoxy}-N-1,3-thiazol-2-ylbenzenesulfonamide], 50 nM. Same read-out and setting: as for `Cn1nccc1-c1ccccc1Oc1ccc(S(=O)(=O)Nc2cscn2)cc1C#N` [Example 400, 3-cyano-4-[2-(1-methyl-1H-pyrazol-5-yl)phenoxy]-N-1,3-thiazol-4-ylbenzenesulfonamide], the figure is 1200 nM. Same read-out and setting: as for `O=S(=O)(Nc1cscn1)c1ccc(Oc2ccc(OC(F)(F)F)cc2-c2cn[nH]c2)c(F)c1` [Example 612, 3-fluoro-4-[2-(1H-pyrazol-4-yl)-4-(trifluoromethoxy)phenoxy]-N-1,3-thiazol-4-ylbenzenesulfonamide], the figure is 540 nM; as for `N#Cc1cc(S(=O)(=O)Nc2ncns2)ccc1Oc1ccc(Cl)cc1-c1ccnn1C(F)F` [Example 510, 4-{4-chloro-2-[1-(difluoromethyl)-1H-pyrazol-5-yl]phenoxy}-3-cyano-N-1,2,4-thiadiazol-5-ylbenzenesulfonamide], 77 nM; as for `Cn1nc(C(F)(F)F)cc1-c1ccc(Oc2cc(F)c(S(=O)(=O)Nc3cscn3)cc2Cl)c(C#N)c1` [Example 524, 5-chloro-4-{2-cyano-4-[1-methyl-3-(trifluoromethyl)-1H-pyrazol-5-yl]phenoxy}-2-fluoro-N-1,3-thiazol-4-ylbenzenesulfonamide], 580 nM.

As to `N#Cc1cc(S(=O)(=O)Nc2cscn2)ccc1Oc1ccc(Cl)cc1-c1ccn(C2CCNCC2)n1` [Example 761, 4-[4-chloro-2-(1-piperidin-4-yl-1H-pyrazol-3-yl)phenoxy]-3-cyano-N-1,3-thiazol-4-ylbenzenesulfonamide], the IC50 was 5400 nM. The same measure, in the same setting: as for `Cc1nn(C)cc1-c1ccc(Oc2ccc(S(=O)(=O)Nc3nccs3)cc2C#N)cc1` [Example 389, 3-cyano-4-[4-(1,3-dimethyl-1H-pyrazol-4-yl)phenoxy]-N-1,3-thiazol-2-ylbenzenesulfonamide], the figure is 1100 nM. On to `Cn1nccc1-c1cc(Cl)ccc1Oc1ccc(S(=O)(=O)Nc2ccncn2)cc1Cl` [Example 668, 3-Chloro-4-[4-chloro-2-(1-methyl-1H-pyrazol-5-yl)phenoxy]-N-pyrimidin-4-ylbenzenesulfonamide], for which the IC50 was 53 nM. Consider `COCc1cccc(-c2cc(Oc3ccc(S(=O)(=O)Nc4ncc(F)s4)cc3C#N)ccc2Cl)c1` [Example 532, 4-{[6-chloro-3′-(methoxymethyl)biphenyl-3-yl]oxy}-3-cyano-N-(5-fluoro-1,3-thiazol-2-yl)benzenesulfonamide], for which the IC50 is 2900 nM. The same measure, in the same setting: as for `CCn1nc(C(F)(F)F)cc1-c1cccc(Oc2ccc(S(=O)(=O)Nc3ncc(F)s3)cc2C#N)c1` [Example 479, 3-cyano-4-{3-[1-ethyl-3-(trifluoromethyl)-1H-pyrazol-5-yl]phenoxy}-N-(5-fluoro-1,3-thiazol-2-yl)benzenesulfonamide], the figure is 230 nM. On the same count and under the same terms, as for `Nc1ncccc1-c1cc(Cl)ccc1Oc1cc(F)c(S(=O)(=O)Nc2ncns2)cc1Cl` [Example 618, 4-[2-(2-aminopyridin-3-yl)-4-chlorophenoxy]-5-chloro-2-fluoro-N-1,2,4-thiadiazol-5-ylbenzenesulfonamide], the figure is 11 nM. On the same count and under the same terms, as for `CCn1nc(C(F)(F)F)cc1-c1ccc(Oc2ncc(S(=O)(=O)Nc3nccs3)cc2Cl)cc1` [Example 758, 5-chloro-6-{4-[1-ethyl-3-(trifluoromethyl)-1H-pyrazol-5-yl]phenoxy}-N-1,3-thiazol-2-ylpyridine-3-sulfonamide], the figure is 210 nM; as for `Cn1nccc1-c1cc(F)ccc1Oc1ccc(S(=O)(=O)Nc2ncc(F)s2)cc1F` [Example 347, 3-fluoro-4-[4-fluoro-2-(1-methyl-1H-pyrazol-5-yl)phenoxy]-N-(5-fluoro-1,3-thiazol-2-yl)benzenesulfonamide], 300 nM. For the compound `Cn1nccc1-c1cc(F)ccc1Oc1cc(F)c(S(=O)(=O)Nc2csnn2)cc1Cl` [Example 364, 5-chloro-2-fluoro-4-(4-fluoro-2-(1-methyl-1H-pyrazol-5-yl)phenoxy)-N-(1,2,3-thiadiazol-4-yl)benzenesulfonamide], the IC50 was 480 nM. Turning to `N#Cc1cc(S(=O)(=O)Nc2ncc(F)cn2)ccc1Oc1ccccc1-c1ccccc1` [Example 427, 4-(biphenyl-2-yloxy)-3-cyano-N-(5-fluoropyrimidin-2-yl)benzenesulfonamide], the IC50 is 4300 nM. On the same count and under the same terms, as for `O=S(=O)(Nc1ncns1)c1cc(F)c(Oc2ccc(Cl)cc2-c2cn[nH]c2)cc1F` [Example 738, 4-[4-chloro-2-(1H-pyrazol-4-yl)phenoxy]-2,5-difluoro-N-1,2,4-thiadiazol-5-ylbenzenesulfonamide], the figure is 1.4 nM. Same read-out and setting: as for `N#Cc1cc(S(=O)(=O)Nc2nccs2)ccc1Oc1ccc(Cl)cc1-n1ccnn1` [Example 322, 4-[4-chloro-2-(1H-1,2,3-triazol-1-yl)phenoxy]-3-cyano-N-1,3-thiazol-2-ylbenzenesulfonamide], the figure is 550 nM.

The assay is the same for the next values; noted with them: estimated IC50; hSCN9A HEK cells, PatchXpress platform; Examples 815-1040.
Consider `O=S(=O)(Nc1cscn1)c1cc(F)c(Oc2ccc(C(F)(F)F)cc2-c2ccnn2C2CNC2)cc1F` [Example 841, 4-[2-(1-azetidin-3-yl-1H-pyrazol-5-yl)-4-(trifluoromethyl)phenoxy]-2,5-difluoro-N-1,3-thiazol-4-ylbenzenesulfonamide], for which the IC50 is 11 nM. In the case of `Cc1cc(NS(=O)(=O)c2ccc(Oc3ccc(Cl)cc3-c3ccnn3C)c(C#N)c2)no1` [Example 883, 4-[4-chloro-2-(1-methyl-1H-pyrazol-5-yl)phenoxy]-3-cyano-N-(5-methylisoxazol-3-yl)benzenesulfonamide], the IC50 was 14000 nM. Regarding `Cc1nn(C(C)(C)C)cc1-c1cc(Cl)ccc1Oc1cc(F)c(S(=O)(=O)Nc2nncs2)cc1Cl` [Example 982, 4-[2-(1-tert-butyl-3-methyl-1H-pyrazol-4-yl)-4-chlorophenoxy]-5-chloro-2-fluoro-N-1,3,4-thiadiazol-2-ylbenzenesulfonamide], the IC50 was >300 nM. Still for that read-out and setting: as for `CCN1CC(n2nccc2-c2cc(Cl)ccc2Oc2cc(F)c(S(=O)(=O)Nc3ncns3)cc2F)C1` [Example 975, 4-{4-chloro-2-[1-(1-ethylazetidin-3-yl)-1H-pyrazol-5-yl]phenoxy}-2,5-difluoro-N-1,2,4-thiadiazol-5-ylbenzenesulfonamide], the figure is 1.5 nM. On the same count and under the same terms, as for `Cn1nccc1NS(=O)(=O)c1ccc(Oc2ccc(Cl)cc2-c2ccnn2C)c(C#N)c1` [Example 894, 4-[4-chloro-2-(1-methyl-1H-pyrazol-5-yl)phenoxy]-3-cyano-N-(1-methyl-1H-pyrazol-5-yl)benzenesulfonamide], the figure is >10000 nM; as for `Cn1cc(-c2cc(Cl)ccc2Oc2ccc(S(=O)(=O)Nc3ncns3)cc2C#N)ccc1=O` [Example 908, 4-[4-chloro-2-(1-methyl-6-oxo-1,6-dihydropyridin-3-yl)phenoxy]-3-cyano-N-1,2,4-thiadiazol-5-ylbenzenesulfonamide], 780 nM.

On to `CC(C)N1CC(n2nccc2-c2cc(Cl)ccc2Oc2ccc(S(=O)(=O)Nc3cscn3)cc2C#N)C1` [Example 861, 4-{4-chloro-2-[1-(1-isopropylazetidin-3-yl)-1H-pyrazol-5-yl]phenoxy}-3-cyano-N-1,3-thiazol-4-ylbenzenesulfonamide], for which the IC50 was 14 nM.
